In patent US20050288259A1, “Composition” (priority 2002, published 2005):

Legend:
[1] = system: L. cuprina diflubenzuron-resistant strain (Emmaville); experiment: In vitro first stage larvae exposure, prevention of adult fly emergence, diflubenzuron-resistant strain; set-up: species or system Lucilia cuprina
Description: Dicyclanil and diflubenzuron belong to different chemical families but are loosely grouped into a large class commonly known as “insect growth regulators”. Importantly both compounds interfere differently with the various development stages of insects. […] The invention makes use of the fact that dicyclanil will control the strains of blowfly that diflubenzuron is ineffective against.
Fly larvae belonging to a diflubenzuron-susceptible strain (LS) and a diflubenzuron-resistant strain (Emmaville) of L. cuprina are tested. First stage larvae are exposed to differing concentrations (aimed to achieve 0-100% prevention of adult fly emergence) of dicyclanil, diflubenzuron or a combination of the two actives (at the ratio used in the invention). The number of larvae forming pupae and the number of pupae producing viable adult flies are recorded. The level of diflubenzuron resistance in the Emmaville strain prevents achieving complete inhibition of adult fly emergence with diflubenzuron. Maximum mortality is 41% at 300 mg diflubenzuron/kg. The limit of solubility of diflubenzuron precludes the testing of higher concentrations.

[2] = Tissue residue study in sheep; assay type: in vivo; details: 2, 3, 4, 5, 6 or 17 weeks after treatment with the invention; none above Limit of Quantitation
Protocol: Tissue residue studies are carried out to determine the period after treatment where the produce of treated animals cannot be used for human consumption. The proposed maximum dose rate for the invention is used in this evaluation. Sheep are treated with the invention at the commencement of the study and at pre-defined intervals thereafter, groups of sheep are humanely sacrificed and the appropriate target tissues (liver, kidney, muscle, fat) are recovered and subsequently analyzed (under Good Laboratory Practice conditions) for the presence of active ingredients (and their metabolites if necessary).
The residue definition for dicyclanil in Australia is the sum of dicyclanil and its metabolite CGA 297′107. Considering this, in the course of this study the mean maximum residue concentrations were detected at two and three weeks post-treatment.
The residue definition for diflubenzuron in Australia is expressed as only diflubenzuron. In this study there were no detectable residues in individual tissues (liver, kidney, subcutaneous fat, renal fat) from any animal above the Limit of Quantitation (0.025 mg/kg) at 2, 3, 4, 5, 6 or 17 weeks after treatment.

Row | SMILES | Emmaville strain response to dicyclanil ([1]; Emmaville strain compared with LS) | Maximum mortality ([1]; Emmaville strain, 300 mg diflubenzuron/kg) [%] | diflubenzuron residues in individual tissues (liver, kidney, subcutaneous fat, renal fat) [2] [mg/kg]
1 | N#Cc1c(N)nc(NC2CC2)nc1N [dicyclanil, 4,6-diamino-2-cyclopropylaminopyrimidine-5-carbonitrile] | typical of a susceptible strain |  | 
2 | O=C(NC(=O)c1c(F)cccc1F)Nc1ccc(Cl)cc1 [diflubenzuron, 1-(4-chlorophenyl)-3-(2,6-difluorobenzoyl)urea] |  | 41 | < 0.025
